Reference: ChEMBL document CHEMBL1201862, “PubChem BioAssay data set” (2004)
Where a name gives a salt, the structure may show the parent alone.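 In this assay, cells in 96-well plates receive the compound at five concentrations for 48 hours. Endpoints are linearly interpolated between the surrounding concentrations. GI50 is the concentration that inhibits growth by half.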 Active and inactive are the calls of the source. No stated cut-off is given here; in the data, active = GI50 up to about 1.1 µM and inactive = higher. Non-standard residues stand in square brackets, D forms with d. Residues, ends and D or L forms follow the SMILES beside them.

Assays:
Assay in all cases: DTP human tumour cell line panel, 48 h
MCF7 = test system: MCF7
EKVX = test system: EKVX
HCT-116 = test system: HCT-116
SNB-19 = test system: SNB-19
SF-268 = test system: SF-268
UACC-62 = test system: UACC-62
SF-295 = test system: SF-295
K562 = test system: K562
OVCAR-8 = test system: OVCAR-8
NCI-H460 = test system: NCI-H460
COLO 205 = test system: COLO 205
TK-10 = test system: TK-10
U-251 = test system: U-251
OVCAR-4 = test system: OVCAR-4
HT-29 = test system: HT-29
UACC-257 = test system: UACC-257
A498 = test system: A498
CCRF-CEM = test system: CCRF-CEM
MDA-N = test system: MDA-N
ACHN = test system: ACHN

| Compound | GI50 (MCF7) | GI50 (EKVX) | GI50 (HCT-116) | GI50 (SNB-19) | GI50 (SF-268) | GI50 (UACC-62) | GI50 (SF-295) | GI50 (K562) | GI50 (OVCAR-8) | GI50 (NCI-H460) | GI50 (COLO 205) | GI50 (TK-10) | GI50 (U-251) | GI50 (OVCAR-4) | GI50 (HT-29) | GI50 (UACC-257) | GI50 (A498) | GI50 (CCRF-CEM) | GI50 (MDA-N) | GI50 (ACHN) |
| --- | --- | --- | --- | --- | --- | --- | --- | --- | --- | --- | --- | --- | --- | --- | --- | --- | --- | --- | --- | --- |
| c1ccc2c3c(c(N4CCOCC4)nc2c1)CCCC3 | 29.5 µM (inactive) | 12.5 µM (inactive) | 40.6 µM (inactive) | 36.9 µM (inactive) | 66.5 µM (inactive) | 55.7 µM (inactive) | 39.6 µM (inactive) | 49.8 µM (inactive) | 57.5 µM (inactive) | 34.7 µM (inactive) | 20 µM (inactive) | 63.4 µM (inactive) | 36.6 µM (inactive) | 49.9 µM (inactive) | 22.7 µM (inactive) | 40.8 µM (inactive) | 24 µM (inactive) | 31.9 µM (inactive) | 50.4 µM (inactive) | 41.2 µM (inactive) |
| C=C1CC(COc2ccc3c(C)c(Cl)c(=O)oc3c2)(c2ccccc2)OC1=O (stereo not given) | 1.08 µM (active) | 10.5 µM (inactive) | 1.01 µM (active) | 13.8 µM (inactive) | 4.46 µM (inactive) | 1.74 µM (inactive) | 7.13 µM (inactive) | 0.422 µM (active) | 2.06 µM (inactive) | 8 µM (inactive) | 0.675 µM (active) | 1.53 µM (inactive) | 8.15 µM (inactive) | 1.67 µM (inactive) | 1.24 µM (inactive) | 1.61 µM (inactive) | 11.8 µM (inactive) | 0.302 µM (active) | 2.07 µM (inactive) | 2.86 µM (inactive) |
| CN(C)c1ccc(C=c2c3ccccc3n3c2c2c([n+]3C)CCCC2)cc1 | 0.0491 µM (active) | 0.0227 µM (active) | 0.0537 µM (active) | 0.0698 µM (active) | 0.183 µM (active) | 0.42 µM (active) | 0.0991 µM (active) | 0.023 µM (active) | 0.128 µM (active) | 0.11 µM (active) | 0.0301 µM (active) | 0.207 µM (active) | 0.0223 µM (active) | 0.255 µM (active) | 0.114 µM (active) | 0.301 µM (active) | 0.247 µM (active) | 0.0465 µM (active) | 0.1 µM (active) | 0.314 µM (active) |
| CC(C)(C)/N=c1/n(C(C)(C)C)oc(=O)n1-c1ccccc1 | > 50 µM (inactive) | > 50 µM (inactive) | > 50 µM (inactive) | > 50 µM (inactive) | > 50 µM (inactive) | > 50 µM (inactive) | > 50 µM (inactive) | > 50 µM (inactive) | > 50 µM (inactive) | > 50 µM (inactive) | > 50 µM (inactive) | > 50 µM (inactive) | > 50 µM (inactive) | > 50 µM (inactive) | > 50 µM (inactive) | > 50 µM (inactive) | > 50 µM (inactive) | > 50 µM (inactive) | > 50 µM (inactive) | > 50 µM (inactive) |
| Cn1c(N)c(/C=C/C(=O)Oc2ccccc2)c(=O)n(C)c1=O | 47.9 µM (inactive) | > 100 µM (inactive) | > 100 µM (inactive) | 59.3 µM (inactive) | 31.7 µM (inactive) | > 100 µM (inactive) | 33.7 µM (inactive) | > 100 µM (inactive) | 30.6 µM (inactive) | > 100 µM (inactive) | > 100 µM (inactive) | > 100 µM (inactive) | 52.8 µM (inactive) | > 100 µM (inactive) | > 100 µM (inactive) | > 100 µM (inactive) | > 100 µM (inactive) | > 100 µM (inactive) | > 100 µM (inactive) | 50.7 µM (inactive) |
| CCn1c2ccccc2c2ccc(C3C(C(=O)OC)=C(C)NC(C)=C3C(=O)OC)cc21 | 27 µM (inactive) | 45.6 µM (inactive) | 43.7 µM (inactive) | 55.8 µM (inactive) | 73.8 µM (inactive) | 87.9 µM (inactive) | 31.7 µM (inactive) | 41.7 µM (inactive) | 49.3 µM (inactive) | 35.5 µM (inactive) | 48.5 µM (inactive) | 59.2 µM (inactive) | 67.8 µM (inactive) | 51.5 µM (inactive) | 33.7 µM (inactive) | 48.2 µM (inactive) | 19.8 µM (inactive) | 30.4 µM (inactive) | 37.8 µM (inactive) | 38.8 µM (inactive) |
| COC(=O)C1=C(C)NC(C)=C([N+](=O)[O-])C1c1cccc(N=O)c1 (stereo not given) | 17.4 µM (inactive) | 21.1 µM (inactive) | 10.8 µM (inactive) | 29.7 µM (inactive) | 17.5 µM (inactive) | 15.5 µM (inactive) | 21.7 µM (inactive) | 4.47 µM (inactive) | 16.3 µM (inactive) | 16.5 µM (inactive) | 15.7 µM (inactive) | 12.8 µM (inactive) | 18 µM (inactive) | 11.9 µM (inactive) | 16.8 µM (inactive) | 12.5 µM (inactive) | 24.4 µM (inactive) | 4.83 µM (inactive) | 10 µM (inactive) | 12.3 µM (inactive) |
| Cc1ccccc1Nc1nc2c(s1)C(=O)c1ccccc1C2=O | 2 µM (inactive) | 13.3 µM (inactive) | 2.36 µM (inactive) | 7.21 µM (inactive) | 4.33 µM (inactive) | 4.55 µM (inactive) | 18 µM (inactive) | 3.07 µM (inactive) | 2.86 µM (inactive) | 8.67 µM (inactive) | 16.8 µM (inactive) | 22.7 µM (inactive) | 4.09 µM (inactive) | 2.02 µM (inactive) | 19.1 µM (inactive) | 5.5 µM (inactive) | 22.4 µM (inactive) | 3.34 µM (inactive) | 1.95 µM (inactive) | 4.95 µM (inactive) |
| COC(=O)c1cc2/c(=N/O)c3ccccc3sc2o1 | > 100 µM (inactive) | > 100 µM (inactive) | > 100 µM (inactive) | > 100 µM (inactive) | > 100 µM (inactive) | > 100 µM (inactive) | > 100 µM (inactive) | > 100 µM (inactive) | > 100 µM (inactive) | 61 µM (inactive) | > 100 µM (inactive) | > 100 µM (inactive) | > 100 µM (inactive) | > 100 µM (inactive) | > 100 µM (inactive) | > 100 µM (inactive) | > 100 µM (inactive) | > 100 µM (inactive) | > 100 µM (inactive) | > 100 µM (inactive) |
| CO/N=C(\C)CCC#Cc1ccccc1C(=O)OC | > 10 µM (inactive) | > 10 µM (inactive) | > 10 µM (inactive) | > 10 µM (inactive) | > 10 µM (inactive) | > 10 µM (inactive) | > 10 µM (inactive) | > 10 µM (inactive) | > 10 µM (inactive) | > 10 µM (inactive) | > 10 µM (inactive) | > 10 µM (inactive) | > 10 µM (inactive) | > 10 µM (inactive) | > 10 µM (inactive) | > 10 µM (inactive) | > 10 µM (inactive) | > 10 µM (inactive) | > 10 µM (inactive) | > 10 µM (inactive) |
| O=C1NCC2(CCNCC2)N1c1ccccc1 | > 100 µM (inactive) | > 100 µM (inactive) | > 100 µM (inactive) | > 100 µM (inactive) | > 100 µM (inactive) | > 100 µM (inactive) | > 100 µM (inactive) | > 100 µM (inactive) | > 100 µM (inactive) | > 100 µM (inactive) | > 100 µM (inactive) | > 100 µM (inactive) | > 100 µM (inactive) | > 100 µM (inactive) | > 100 µM (inactive) | > 100 µM (inactive) | > 100 µM (inactive) | > 100 µM (inactive) | > 100 µM (inactive) | > 100 µM (inactive) |
| CSCC[C@H](NC(=O)[C@@H](N)CC(N)=O)C(=O)N[C@@H](Cc1c[nH]c2ccccc12)C(=O)N[C@@H](CCC(N)=O)C(=O)N[C@@H](CCC(=O)O)C(=O)N[C@H](C(=O)NCC(=O)N[C@@H](CCCCN)C(=O)N[C@H](C)C(=O)O)C(C)C (H-NMWQEVGK[dA]-OH) | > 100 µM (inactive) | > 100 µM (inactive) | > 100 µM (inactive) | > 100 µM (inactive) | > 100 µM (inactive) | > 100 µM (inactive) | > 100 µM (inactive) | > 100 µM (inactive) | > 100 µM (inactive) | > 100 µM (inactive) | > 100 µM (inactive) | > 100 µM (inactive) | > 100 µM (inactive) | > 100 µM (inactive) | > 100 µM (inactive) | > 100 µM (inactive) | > 100 µM (inactive) | > 100 µM (inactive) | > 100 µM (inactive) | > 100 µM (inactive) |
| N=C(N)c1ccc(-c2ccc(-c3ccc(C(=N)N)cc3)o2)cc1 [FURAMIDINE HYDROCHLORIDE] | 17.5 µM (inactive) | 28.4 µM (inactive) | 28.8 µM (inactive) | 51.9 µM (inactive) | 45.3 µM (inactive) | 25.6 µM (inactive) | 41.4 µM (inactive) | 22.8 µM (inactive) | 33.7 µM (inactive) | 17.6 µM (inactive) | 12.4 µM (inactive) | 24.9 µM (inactive) | 16.6 µM (inactive) | > 100 µM (inactive) | 24.5 µM (inactive) | 27.9 µM (inactive) | 63.7 µM (inactive) | 24.9 µM (inactive) | 27.5 µM (inactive) | 39.6 µM (inactive) |
| Cc1cc2nc3ccc(N(C)C)cc3[s+]c2cc1N [TOLONIUM CHLORIDE] | 2.3 µM (inactive) | 4.48 µM (inactive) | 1.75 µM (inactive) | 2.69 µM (inactive) | 5.38 µM (inactive) | 1.89 µM (inactive) | 3.62 µM (inactive) | 2.22 µM (inactive) | 2.16 µM (inactive) | 2.82 µM (inactive) | 2.97 µM (inactive) | 19.2 µM (inactive) | 3.17 µM (inactive) | 3.35 µM (inactive) | 7.93 µM (inactive) | 1.37 µM (inactive) | 21.3 µM (inactive) | 1.16 µM (inactive) | 1.09 µM (active) | 8.71 µM (inactive) |
